Patent US7956085B2, “1,4-benzothiepine 1,1-dioxide derivatives substituted by benzyl radicals, method for their preparation, pharmaceuticals comprising these compounds, and the use thereof” (Sanofi-Aventis Deutschland GmbH, priority 2006, dated 2011)

These molecules were tested against T1, human IBAT (Homo sapiens, UniProt Q12908) (assay: In vitro IBAT inhibition assay: IBAT-dependent uptake of [3H]-taurocholic acid into CHO-hIBAT cells). Conditions: 10 μM taurocholic acid, 60 min at room temperature, read-out: IC-50 (human IBAT).
T1 construct: Bases 599 to 1645 correspond to the complete coding region of human IBAT; expressed in transfected cells
T1 sequence (Q12908 1-348): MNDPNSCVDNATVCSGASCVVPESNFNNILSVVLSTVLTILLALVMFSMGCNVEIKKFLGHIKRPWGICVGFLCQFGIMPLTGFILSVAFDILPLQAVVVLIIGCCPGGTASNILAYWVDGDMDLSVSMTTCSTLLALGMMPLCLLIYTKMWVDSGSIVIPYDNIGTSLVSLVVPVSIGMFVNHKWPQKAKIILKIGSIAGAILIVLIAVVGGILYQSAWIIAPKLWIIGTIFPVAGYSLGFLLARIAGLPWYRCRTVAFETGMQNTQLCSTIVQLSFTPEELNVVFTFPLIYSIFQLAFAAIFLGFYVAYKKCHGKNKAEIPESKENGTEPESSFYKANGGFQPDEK
Format: cell-based
Description: Preparation and Procedure for the In Vitro IBAT Inhibition Assay:
1. Cloning of an Expression Vector for Human IBAT
The cDNA (complementary deoxyribonucleic acid) of human IBAT was cloned by standard methods of molecular biology as described for example in Molecular Cloning: A Laboratory Manual by Joseph Sambrook and David Russell, and introduced into the pcDNA1 vector from Invitrogen. […] Bases 599 to 1645 correspond to the complete coding region of human IBAT.
2. Preparation of a Recombinant Cell Line with Constitutive Expression of Human IBAT
The expression vector for human IBAT was introduced by stable transfection into CHO (chinese hamster ovary) cells. To select single cell clones, 400 μg/ml Geneticin was added to the cell culture medium (Ham's F12 medium supplemented with 10% fetal calf serum, 100 units/ml penicillin, 100 units/ml streptomycin). The functionality of the single cell clones resulting from the selection was assayed via their uptake activity for radiolabeled taurocholic acid ([^3H]-TCA). The cell clone with the highest uptake activity for [^3H]-TCA, referred to hereinafter as CHO-hIBAT, was selected for the further assays and further cultured in the presence of 400 μg/ml Geneticin.
3. Measurement of The Inhibitory Effect of The Compound of The Invention on The IBAT-Dependent Uptake of Taurocholic Acid into Cells
CHO-hIBAT cells were seeded in a concentration of 40 000 cells per well in poly-D-lysine-coated 96-well plates in cell culture medium and cultured for 24 h. The cells were then washed once with sodium-free transport assay buffer (140 mM choline chloride, 2 mM potassium chloride, 1 mM magnesium chloride, 1 mM calcium chloride, 10 mM HEPES/Tris, pH 7.5) and subsequently incubated either with sodium-free transport assay buffer as negative control or with sodium-containing transport assay buffer (140 mM sodium chloride, 2 mM potassium chloride, 1 mM magnesium chloride, 1 mM calcium chloride, 10 mM HEPES/Tris, pH 7.5) as positive control at room temperature for 30 min. At the same time, the assay wells were also incubated in the presence of the compound to be investigated in varying concentration in sodium-containing transport assay buffer at room temperature for 30 min. The test substances were appropriately diluted in transport assay buffer (40 μl/well) starting from a 10 mM stock solution in dimethyl sulfoxide. The assay was then started by adding 10 μl/well of a mixture of radiolabeled taurocholic acid ([^3H]-TCA) and unlabeled taurocholic acid. The final concentration of taurocholic acid in the assay was 10 μM. After an incubation time of 60 min at room temperature, the reaction was stopped by adding 100 μl/well of sodium-free transport assay buffer (4° C.), and each well was washed three times with sodium-free transport assay buffer. Finally, 100 μl of scintillation fluid were added to each well, and the radioactivity taken up into the cells was determined in a MicroBeta Scintillation Microplate Reader from Wallac.
The half-maximum inhibitory effect of the test compound (IC50 value, inhibitory concentration 50) was determined in the following way: • 1. Determination of the value for 0% inhibition. This is the measurement in the absence of substance, measured in sodium-containing transport assay buffer. • 2. Determination of the value for 100% inhibition. This is the measurement in the absence of substance, measured in sodium-free transport assay buffer. • 3. Calculation of the percentage inhibitions of those measurements carried out in the presence of various concentrations of the compound to be investigated. It was then possible to find therefrom the concentration of the compound which reduces the uptake of taurocholic acid by 50% (IC50 value).

Row | IC50 [nM] | SMILES
1 | 6.9 | CCCCC1(CCCC)CS(=O)(=O)c2ccc(N(C)C)cc2[C@@H](c2cccc(NC(=O)N[C@@H]3O[C@H](CO)[C@@H](O)[C@H](OCc4ccccc4)[C@H]3O)c2)[C@H]1O [Example 2]
2 | 3.5 | CCCC[C@]1(CC)CS(=O)(=O)c2ccc(N(C)C)cc2[C@@H](c2cccc(NC(=O)N[C@@H]3O[C@H](COCc4ccccc4)[C@@H](O)[C@H](OCc4ccccc4)[C@H]3O)c2)[C@H]1O [Example 3]

More lines, now with the values behind:

Row | SMILES | IC50 [nM]
3 | CCCC[C@]1(CC)CS(=O)(=O)c2ccc(N(C)C)cc2[C@@H](c2cccc(NC(=O)N[C@@H]3O[C@H](CO)[C@@H](O)[C@H](OCc4ccccc4)[C@H]3O)c2)[C@H]1O [Example 1] | 4.4
4 | CCCC[C@]1(CC)CS(=O)(=O)c2ccc(N(C)C)cc2[C@@H](c2cccc(NC(=O)N[C@@H]3O[C@H](COS(=O)(=O)O)[C@@H](O)[C@H](OCc4ccccc4)[C@H]3O)c2)[C@H]1O [Example 4] | 2.4
5 | CCCC[C@]1(CC)CS(=O)(=O)c2ccc(N(C)C)cc2[C@@H](c2cccc(NC(=O)N[C@@H]3O[C@H](COS(=O)(=O)O)[C@@H](OS(=O)(=O)O)[C@H](OCc4ccccc4)[C@H]3O)c2)[C@H]1O [Example 5] | 2
6 | CCCCC1(CCCC)CS(=O)(=O)c2ccc(N(C)C)cc2[C@@H](c2cccc(NC(=O)N[C@@H]3O[C@H](COS(=O)(=O)O)[C@@H](O)[C@H](OCc4ccccc4)[C@H]3O)c2)[C@H]1O [Example 6] | 10.7
